Measured values as given in ChEMBL document CHEMBL4680259, “Discovery of bazedoxifene analogues targeting glycoprotein 130” (Eur J Med Chem, 2020).
Active and inactive are the calls of the source. No cut-off for these calls is given here.

Columns and labels:
[1] = molecular target: T1, Interleukin-6 receptor subunit beta (Homo sapiens) (UniProt P40189); assay: Inhibition of GP130 in human A549 cells assessed as reduction in bcl2 protein expression after 24 hrs by Western blot analysis; format: cell-based; conditions: dose 3-9 µM
T1 sequence (whole entry): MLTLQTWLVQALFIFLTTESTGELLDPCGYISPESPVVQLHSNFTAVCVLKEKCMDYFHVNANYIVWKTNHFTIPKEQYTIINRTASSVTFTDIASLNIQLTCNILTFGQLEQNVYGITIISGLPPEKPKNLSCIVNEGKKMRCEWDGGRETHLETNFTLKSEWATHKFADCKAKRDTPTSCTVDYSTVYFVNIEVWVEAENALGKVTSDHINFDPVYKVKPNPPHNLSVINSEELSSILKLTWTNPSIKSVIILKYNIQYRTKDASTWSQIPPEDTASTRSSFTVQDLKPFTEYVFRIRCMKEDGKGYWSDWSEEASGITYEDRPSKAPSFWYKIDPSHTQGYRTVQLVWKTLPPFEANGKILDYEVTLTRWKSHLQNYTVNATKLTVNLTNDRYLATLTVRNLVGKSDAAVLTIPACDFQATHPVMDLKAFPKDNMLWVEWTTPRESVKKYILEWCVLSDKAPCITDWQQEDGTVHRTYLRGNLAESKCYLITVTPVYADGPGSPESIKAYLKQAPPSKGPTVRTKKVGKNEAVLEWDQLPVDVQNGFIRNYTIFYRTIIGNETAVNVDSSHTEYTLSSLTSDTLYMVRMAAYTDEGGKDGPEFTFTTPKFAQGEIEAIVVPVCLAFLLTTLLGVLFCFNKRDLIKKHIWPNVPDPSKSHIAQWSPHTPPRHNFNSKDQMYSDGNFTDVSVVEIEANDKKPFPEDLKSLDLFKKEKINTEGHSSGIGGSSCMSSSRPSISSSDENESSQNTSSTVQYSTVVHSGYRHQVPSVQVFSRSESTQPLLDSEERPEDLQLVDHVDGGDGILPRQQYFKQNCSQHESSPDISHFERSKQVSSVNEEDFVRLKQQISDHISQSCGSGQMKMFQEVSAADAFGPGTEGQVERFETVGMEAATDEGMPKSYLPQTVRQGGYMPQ

[2] = molecular target: T1, Interleukin-6 receptor subunit beta (Homo sapiens); assay: Inhibition of GP130 in human A549 cells assessed as reduction in cyclin-D1 protein expression after 24 hrs by Western blot analysis; format: cell-based; conditions: dose 3-9 µM
[3] = system: A549; assay: Induction of apoptosis in human A549 cells assessed as increase in cleaved caspase-3 level at 3 to 9 uM incubated for 24 hrs by Western blot analysis; format: functional, cell-based; conditions: dose 3-9 µM
[4] = system: A549; assay: Potency index, ratio of bazedoxifene IC50 to test compound IC50 for antiproliferative activity against human A549 cells after 24 hrs by MTT assay; format: functional
[5] = system: A549; assay: Induction of apoptosis in human A549 cells assessed as late apoptotic cells at 6 uM incubated for 24 hrs by annexin V-FITC and propidium iodide staining based flow cytometry analysis (reference value: 1.4 %); format: functional
[6] = system: A549; assay: Induction of apoptosis in human A549 cells assessed as viable cells at 6 uM incubated for 24 hrs by annexin V-FITC and propidium iodide staining based flow cytometry analysis (reference value: 97.7 %); format: functional; conditions: read-out: Activity
[7] = Toxicity in nude mouse xenografted with human A549 cells assessed as effect on body weight at 10 to 20 mg/kg, ip administered daily for 21 days and measured every 2 or 3 days; format: organism-based; conditions: in vivo, 504 h, dose 10-20 mg/kg, time 21 day
[8] = Half life in rat at 0.5 mg/kg, iv; format: ADME, organism-based; conditions: in vivo
[9] = system: A549; assay: Induction of apoptosis in human A549 cells assessed as late apoptotic cells at 3 uM incubated for 24 hrs by annexin V-FITC and propidium iodide staining based flow cytometry analysis (reference value: 1.4 %); format: functional
[10] = Acute toxicity in ICR mouse assessed as abnormal behaviour at 120 mg/kg measured after 2 weeks; format: organism-based; conditions: in vivo, 336 h
[11] = system: A549; assay: Induction of apoptosis in human A549 cells assessed as early apoptotic cells at 3 uM incubated for 24 hrs by annexin V-FITC and propidium iodide staining based flow cytometry analysis (reference value: 0.5 %); format: functional
[12] = system: A549; assay: Induction of ROS generation in human A549 cells assessed as fold increase in ROS level at 6 uM after 24 hrs by DCFH-DA staining based flow cytometric analysis relative to control; format: functional
[13] = molecular target: T1, Interleukin-6 receptor subunit beta (Homo sapiens); assay: Binding affinity to D2/D3 domain of FLAG-tagged GP130 (unknown origin) expressed in HEK293 cells assessed as inhibition of rhIL6/Myc-tagged IL6R interaction with GP130 at 10 uM preincubated for 4 hrs followed by stimulation with recombinant human IL6 for 30 mins by co-immunoprecipitation method; format: cell-based; conditions: time 270.0 min
[14] = molecular target: T1, Interleukin-6 receptor subunit beta (Homo sapiens); assay: Inhibition of GP130 in human A549 cells assessed as decrease in STAT3 phosphorylation at Y705 residue at 3 to 9 uM incubated for 24 hrs by western blot analysis; format: cell-based; conditions: dose 3-9 µM
[15] = system: A549; assay: Induction of apoptosis in human A549 cells assessed as increase in cleaved caspase-7 level at 3 to 9 uM incubated for 24 hrs by Western blot analysis; format: functional, cell-based; conditions: dose 3-9 µM
[16] = system: A549; assay: Induction of apoptosis in human A549 cells assessed as increase in cleaved PARP level at 3 to 9 uM incubated for 24 hrs by Western blot analysis; format: functional, cell-based; conditions: dose 3-9 µM
[17] = system: A549; assay: Induction of apoptosis in human A549 cells assessed as necrotic cells at 3 uM incubated for 24 hrs by annexin V-FITC and propidium iodide staining based flow cytometry analysis (reference value: 0.4 %); format: functional
[18] = molecular target: T2, Interleukin-6 receptor subunit beta (Homo sapiens, UniProt P40189); assay: Binding affinity to immobilized GP130 (unknown origin) by SPR analysis
T2 sequence (P40189 whole entry): T1 sequence (whole entry)

[19] = system: A549; assay: Induction of apoptosis in human A549 cells assessed as late apoptotic cells at 9 uM incubated for 24 hrs by annexin V-FITC and propidium iodide staining based flow cytometry analysis (reference value: 1.4 %); format: functional
[20] = system: A549; assay: Antitumor activity against human A549 cells xenografted in nude mouse assessed as decrease in tumor weight at 20 mg/kg, ip administered daily for 21 days and measured every 2 to 3 days; format: functional; conditions: 504 h, time 21 day
[21] = Mean residence time in rat at 5 mg/kg, ig; format: ADME, organism-based; conditions: in vivo, po
[22] = molecular target: T1, Interleukin-6 receptor subunit beta (Homo sapiens); assay: Inhibition of GP130 in human A549 cells assessed as reduction in STAT3 dimer DNA binding activity in nuclear extract in presence of hSIE probe at 3 to 9 uM after 24 hrs by EMSA analysis; format: subcellular; conditions: Nucleus, dose 3-9 µM
[23] = system: A549; assay: Antitumor activity against human A549 cells xenografted in nude mouse assessed as decrease in tumor weight at 10 mg/kg, ip administered daily for 21 days and measured every 2 to 3 days; format: functional; conditions: 504 h, time 21 day
[24] = Volume of distribution in rat at 5 mg/kg, ig; format: ADME, organism-based; conditions: in vivo, po
[25] = AUC (0 to infinity) in rat at 5 mg/kg, ig; format: ADME, organism-based; design: route […], time infinity, dose 5 mg/kg; conditions: in vivo, po
[26] = system: A549; assay: Induction of apoptosis in human A549 cells assessed as necrotic cells at 6 uM incubated for 24 hrs by annexin V-FITC and propidium iodide staining based flow cytometry analysis (reference value: 0.4 %); format: functional

NC(=O)N1N=C(c2ccc(C(F)(F)F)cc2)CC1c1cn(Cc2ccc(OCCN3CCCCCC3)cc2)c2ccc(Br)cc12 (stereo unspecified)
inhibition [1]: Dose-dependent effect | inhibition [2]: Dose-dependent effect | Activity [3]: Active | Ratio IC50 [4]: 5.5 | Activity [5]: 4.9% | viability at 6 µM [6]: 91.5% | Activity [7]: Non-Toxic | half-life [8]: 11.8 h | Activity [9]: 2.5% | Activity [10]: Non-Toxic | Activity [11]: 0.9% | fold change (FC) [12]: 4.09 | Activity [13]: inactive | Activity [14]: Active | Activity [15]: Active | Activity [16]: Active | Activity [17]: 0.4% | Kd [18]: 3.8 µM | Activity [19]: 33% | inhibition in vivo at 20 mg/kg [20]: 59% | MRT [21]: 11.6 h | inhibition [22]: Active | inhibition in vivo at 10 mg/kg [23]: 27.1% | Vd [24]: 12.6 L/kg | AUC [25]: 329.9 ng·h/mL | Activity [26]: 1.9%
